Laboratory results reported in patent publication US7058616B1, “Method and system for predicting resistance of a disease to a therapeutic agent using a neural network” (Virco Bvba, priority 2000, dated 2006).

System: HIV-1
Assay: MT-4 cell viral cytopathic effect protection assay, phenotypic susceptibility of patient recombinant virus
Assay type: cell-based
Method: Phenotypic susceptibility was determined using a MT-4 cell viral cytopathic effect protection assay. See, e.g., Kashiwase et al., Chemotherapy 45(1):48–55 (1999), expressly incorporated herein by reference; Larder et al., Antimicrob. Agents Chemother. 43(8):1961–1967 (1999).

## CC(C)c1nc(CN(C)C(=O)N[C@H](C(=O)N[C@@H](Cc2ccccc2)C[C@H](O)[C@H](Cc2ccccc2)NC(=O)OCc2cncs2)C(C)C)cs1 [Ritonavir]
Table 13/14 sample 2: 10I,46I,48V,77I,82A,90M, 10E,58E,63T
  actual phenotype: S (A fold resistance of less than or equal to 4 is considered to be ‘sensitive’)
Table 13/14 sample 6: 10I,48V,54V,82A, 13V
  actual phenotype: R (if the value is greater than 10, it is considered to be ‘resistant’)
Table 13/14 sample 7: 71V,73S,90M, 20I,63P
  actual phenotype: I (greater than 4 and less than 10 is considered to be ‘intermediate’)
Table 13/14 sample 14: 10I,46I,71T,77I,90M, 57K,63P,93L
  actual phenotype: S (A fold resistance of less than or equal to 4 is considered to be ‘sensitive’)
Table 13/14 sample 17: 46I,77I,90M, 10F,20L,63P
  actual phenotype: I (greater than 4 and less than 10 is considered to be ‘intermediate’)
